Experimental findings from ChEMBL document CHEMBL4190285, “Borapetoside E, a Clerodane Diterpenoid Extracted from Tinospora crispa, Improves Hyperglycemia and Hyperlipidemia in High-Fat-Diet-Induced Type 2 Diabetes Mice” (J Nat Prod, 2017) are described below.

The source made the active and inactive calls. The calls are words filed in the database; no cut-off is given here.

Test [1] concerns Mus musculus. Description: Antihyperlipidemic activity in high fat diet-induced obese C57BL/6J mouse assessed as serum triglyceride levels at 200 mg/kg, ip administered twice daily for 2.5 days measured at 2 hrs post last dose (reference value: 1.31 +/- 0.48 mmol/L). Format: functional.
The test system of test [2] is Mus musculus. Kind of test: Antihyperlipidemic activity in high fat diet-induced obese C57BL/6J mouse assessed as serum LDL-C levels at 200 mg/kg, ip administered twice daily for 2.5 days measured at 2 hrs post last dose (reference value: 2.54 +/- 0.87 mmol/L). In kind it is functional.
In test [3] the test system is Mus musculus. Kind of test: Antihyperlipidemic activity in high fat diet-induced obese C57BL/6J mouse assessed as serum HDL-C levels at 200 mg/kg, ip administered twice daily for 2.5 days measured at 2 hrs post last dose (reference value: 1.82 +/- 0.58 mmol/L). In kind it is functional.
For test [4], the system named is Mus musculus. Kind of test: Antihyperlipidemic activity in high fat diet-induced obese C57BL/6J mouse assessed as serum total cholesterol levels at 200 mg/kg, ip administered twice daily for 2.5 days measured at 2 hrs post last dose (reference value: 4.56 +/- 1.01 mmol/L). In kind it is functional.
The subject of test [5] is Mus musculus. Kind of test: Antihyperlipidemic activity in high fat diet-induced obese C57BL/6J mouse assessed as serum free fatty acid levels at 200 mg/kg, ip administered twice daily for 2.5 days measured at 2 hrs post last dose (reference value: 1.41 +/- 0.3 mmol/L). Format: functional.
In test [6] the test system is Mus musculus. Description: Antihyperglycemic activity in high fat diet-induced obese C57BL/6J mouse assessed as reduction in blood glucose level at 200 mg/kg, ig administered as single dose. Format: functional, organism-based.
Test [7] relates to Mus musculus. Description: Antihyperglycemic activity in high fat diet-induced obese C57BL/6J mouse assessed as reduction in blood glucose level at 200 mg/kg, ig administered twice daily for 2.5 days measured up to 5 days post last dose. In kind it is functional, organism-based.

With `CN(C)C(=N)NC(=N)N` [METFORMIN], the Activity in the test on Mus musculus [1] is on record as 0.97 mmol/L; in the test with Mus musculus [2], 2.93 mmol/L; in the test with Mus musculus [3], 2.14 mmol/L; with Mus musculus [4], 4.47 mmol/L; with Mus musculus [5], 1.18 mmol/L. Also, the outcome with Mus musculus [6] and with Mus musculus [7] was Active.
